Broadly, the melting point is the temperature, or range, at which the solid turns liquid. Compound `Cn1nc(-c2c(Cl)cncc2Cl)nc1-c1ccc(Cl)cc1Cl` [Compound 7] came in with a melting point of 79 to 81 °C. In the case of `Cn1nc(-c2c(Cl)cncc2Cl)nc1-c1ccncc1` [Compound 113], the melting point lay in the range of 130 to 132 °C. In the case of `Cn1nc(-c2c(Cl)cncc2Cl)nc1C1(C)CC1(Cl)Cl` (centres unmarked) [Compound 133, 3-(3,5 dichloro-4-pyridyl)-5-(2,2-dichloro-1-methylcyclopropyl)-1-methyl[1,2,4]triazole] it was 79 to 83 °C.

As to `Cn1nc(-c2nc(F)c(F)c(F)c2F)nc1-c1ccc(Cl)cc1` [Compound 155], the melting point lay in the range of 154 to 156 °C. On to `Cn1nc(-c2nc(Cl)ccc2Cl)nc1-c1ccc(Cl)cc1` [Compound 156], for which the melting point lay within 98 to 102 °C.

In the case of `Cn1nc(-c2ncc(Cl)cc2Cl)nc1-c1ccc(Cl)cc1` [Compound 158], the melting point fell in the range of 105 to 107 °C. `Cc1ccc(-c2nc(-c3ncccc3Cl)nn2C)cc1` [Compound 159]: the melting point lay within 113 to 117 °C.

Consider `Cc1nc(-c2c(Cl)cncc2Cl)nn1-c1ccc(Cl)cc1` [Example 19, 1-(4-Chlorophenyl)-5-methyl-3-(3,5-dichloro-4-pyridyl)-1H-1,2,4-triazole], for which the melting point lay in the range of 142 to 145 °C.

Values taken from patent publication US6413992B1, “3-(substituted pyridyl)-1,2,4-triazole compounds” (Dow AgroSciences LLC, priority 1998, dated 2002).
